From patent US12606558B2, “Condensed pyrazole derivatives as inhibitors of SARM1” (Disarm Therapeutics, Inc., priority 2020, dated 2026)

Molecular target: T1, SARM1 (Homo sapiens, UniProt Q6SZW1)
T1 construct: made in house; host or cells: NRK1-HEK293T cells, transient transfection; clarified lysate used without purification
T1 sequence (Q6SZW1 with tags, fused parts or gaps): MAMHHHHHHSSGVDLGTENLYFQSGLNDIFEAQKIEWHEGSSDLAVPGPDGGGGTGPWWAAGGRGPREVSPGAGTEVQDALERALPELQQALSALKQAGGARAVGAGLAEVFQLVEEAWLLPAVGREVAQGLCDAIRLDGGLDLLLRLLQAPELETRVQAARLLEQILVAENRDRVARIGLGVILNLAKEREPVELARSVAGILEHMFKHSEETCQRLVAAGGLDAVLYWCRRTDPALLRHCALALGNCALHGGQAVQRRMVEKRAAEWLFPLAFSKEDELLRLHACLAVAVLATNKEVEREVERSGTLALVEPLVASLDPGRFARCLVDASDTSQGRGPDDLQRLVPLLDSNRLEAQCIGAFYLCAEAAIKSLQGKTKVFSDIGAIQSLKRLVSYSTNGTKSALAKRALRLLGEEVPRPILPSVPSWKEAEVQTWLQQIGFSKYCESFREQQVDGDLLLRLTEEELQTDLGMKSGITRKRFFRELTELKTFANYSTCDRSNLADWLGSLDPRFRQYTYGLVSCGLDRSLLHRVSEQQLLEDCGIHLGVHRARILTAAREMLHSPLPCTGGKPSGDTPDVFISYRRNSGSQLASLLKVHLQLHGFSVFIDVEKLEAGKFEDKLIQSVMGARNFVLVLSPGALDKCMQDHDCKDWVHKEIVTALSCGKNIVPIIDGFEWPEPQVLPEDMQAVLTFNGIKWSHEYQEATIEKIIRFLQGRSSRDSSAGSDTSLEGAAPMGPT
Assay: ARM-SAM-TIR SARM1 IC50 assay (NADase activity, NAD+ cleavage)
Assay type: biochemical
Conditions: ARM-SAM-TIR lysate 5 μg/mL, 2 h pre-incubation, 5 μM NAD+, 2 hr room temperature, RapidFire mass spectrometry of NAD+ and ADPR
Method: This Example describes an assay of ARM-SAM-TIR NADase activity and use of this assay to measure the efficacy of compounds of Formula I/II to block SARM1 mediated NAD+ cleavage. This assay was optimized in such a way as to characterize the efficacy of the compounds in Formula I/II to inhibit SARM1 activity and to calculate an IC50 value for each compound. This assay makes use of full length SARM1, which encompasses the ARM, SAM and TIR domains.
NRK1-HEK293T cells were seeded onto 150 cm^2 plates at 20×10^6 cells per plate. The next day, the cells were transfected with 15 μg ARM-SAM-TIR expression plasmid, SEQ ID NO: 1.
The cultures were supplemented with 1 mM NR at time of transfection to minimize toxicity from ARM-SAM-TIR overexpression. Forty-eight hours after transfection, cells were harvested, pelleted by centrifugation at 1,000 rpm (Sorvall ST 16R centrifuge, Thermo Fisher), and washed once with cold PBS (0.01 M phosphate buffered saline NaCl 0.138 M; KCl 0.0027 M; pH 7.4). The cells were resuspended in PBS with protease inhibitors (cOmplete™ protease inhibitor cocktail, Roche product #11873580001) and cell lysates were prepared by sonication (Branson Sonifer 450, output=3, 20 episodes of stroke). The lysates were centrifuged (12,000×g for 10 min at 4° C.) to remove cell debris and the supernatants (containing ARM-SAM-TIR protein) were stored at −80° C. for later use in the in vitro ARM-SAM-TIR NADase assay (see below). Protein concentration was determined by the Bicinchoninic (BCA) method and used to normalize lysate concentrations.
The enzymatic assay was performed in a 384-well polypropylene plate in Dulbecco's PBS buffer in a final assay volume of 20 μL. ARM-SAM-TIR lysate with a final concentration of 5 μg/mL was pre-incubated with the respective compound at 1% DMSO final assay concentration over 2 h at room temperature. The reaction was initiated by addition of 5 μM final assay concentration of NAD+ as substrate. After a 2 hr room temperature incubation, the reaction was terminated with 40 μL of stop solution of 7.5% trichloroactetic acid in acetonitrile. The NAD+ and ADPR concentrations were analyzed by a RapidFire High Throughput Mass Spectrometry System (Agilent Technologies, Santa Clara, Calif.) using an API4000 triple quadrupole mass spectrometer (AB Sciex Framingham, Mass.).

Row | Structure (SMILES) | IC50 [nM]
1 | O=C(CCc1ccc(Cl)nc1)N1CCCc2c(-c3ccncc3)n[nH]c21 [Example 1] | 100 to 1000
2 | O=C(CCc1ccc(Cl)cc1)N1CCCc2c(-c3ccncc3)n[nH]c21 [Example 2] | < 100
3 | O=C(CCc1ccc(Cl)cc1)N1CCOc2c(-c3ccncc3)n[nH]c21 [Example 3] | < 100
4 | O=C(NCc1ccc(Cl)nc1)N1CCCc2c(-c3ccncc3)n[nH]c21 [Example 4] | > 10000
5 | O=C(NCc1ccc(Cl)cc1)N1CCCc2c(-c3ccncc3)n[nH]c21 [Example 5] | 1010 to 5000
6 | O=C(CCc1ccc(Cl)cc1)N1CCOc2c(-c3ccnnc3)n[nH]c21 [Example 6] | < 100
7 | O=C(CCc1ccc(Cl)cc1)N1CCCc2c(-c3ccnnc3)n[nH]c21 [Example 7] | < 100
8 | N#Cc1ccc(CCC(=O)N2CCCc3c(-c4ccncc4)n[nH]c32)cc1 [Example 8] | 100 to 1000
9 | N#Cc1ccc(CCC(=O)N2CCCc3c(-c4ccnnc4)n[nH]c32)cc1 [Example 9] | < 100

Next, values leading:

Row | IC50 [nM] | Structure (SMILES)
10 | < 100 | O=C(CCc1ccc(Cl)nc1)N1CCCc2c(-c3ccnnc3)n[nH]c21 [Example 10]
11 | < 100 | O=C(CCc1cnc(Cl)c(F)c1)N1CCCc2c(-c3ccncc3)n[nH]c21 [Example 11]
12 | < 100 | O=C(CCc1cnc(Cl)c(F)c1)N1CCCc2c(-c3ccnnc3)n[nH]c21 [Example 12]
13 | < 100 | O=C(CCc1ccc(Cl)c(F)c1)N1CCCc2c(-c3ccncc3)n[nH]c21 [Example 13]
14 | < 100 | N#Cc1ccc(CCC(=O)N2CCCc3c(-c4ccncc4)n[nH]c32)cc1F [Example 14]
15 | < 100 | O=C(CCc1ccc(Cl)c(F)c1)N1CCCc2c(-c3ccnnc3)n[nH]c21 [Example 15]
16 | < 100 | N#Cc1ccc(CCC(=O)N2CCCc3c(-c4ccnnc4)n[nH]c32)cc1F [Example 16]
17 | < 100 | O=C1CCN(C(=O)CCc2ccc(Cl)cc2)c2[nH]nc(-c3ccncc3)c21 [Example 17]
18 | 100 to 1000 | O=C1CCN(C(=O)CCc2ccc(Cl)nc2)c2[nH]nc(-c3ccncc3)c21 [Example 18]
19 | < 100 | O=C(CCc1ccc(Cl)cc1)N1CCC(O)c2c(-c3ccncc3)n[nH]c21 (centres unmarked) [Example 19]
20 | 100 to 1000 | O=C(CCc1ccc(Cl)nc1)N1CCC(O)c2c(-c3ccncc3)n[nH]c21 (centres unmarked) [Example 20]
